Patent US20120058920A1, “Method for Identifying Inhibitors Against Dengue Virus” (priority 2009, published 2012)
Where two headings read alike, the source gives them in different places.

Tested on: dengue serotype 2
Test: Antiviral assay (dengue serotype 2), CPE inhibition in Vero cells with ATPLite luminescence readout
Type: cell-based, dengue virus
Protocol: 3. Antiviral assays (dengue serotype 2)
15 μl of Vero cells (1500 cells/well) were added to a 384-well white plate containing 10 μl of four-fold serially diluted testing compound in cell culture medium with 2% FCS. 15 μl of virus stock was then added to each well at a MOI of 0.1. Cell controls received only cells and medium, while virus controls received virus but no test compound. Plates were incubated at 37° C. until the viral CPE in the virus control wells reached ˜100% (5-6 days). ATPLite (Perkin Elmer) was added to all wells according to the supplier's instructions. Briefly, 40 μl of the reconstituted lyophilized substrate solution was added to each well. The plate was shaken at 700 rpm for 2 minutes and the luminescence was measured using a Viewlux apparatus (Perkin Elmer) by taking a 0.1-0.5-second integrated reading of each test plate. The results were expressed as EC50 values defined as the concentration of compound achieving 50% inhibition of the virus-reduced luminescence signals as compared with the uninfected cell control. The signal-to-noise ratio of an assay is the ratio between the mean luminescent signals of the cell controls and the virus controls. The dynamic range is defined as the ratio between the signals at the last (maximal signal) and first point in the linear range of the dose-response curve.
Intra-assay reproducibility was measured by performing each experiment in three identical plates with each concentration of drug in triplicate. Inter-assay reproducibility was measured by performing three independent experiments at different times under the same experimental conditions.

[1] = Dengue virus, Vero, accuracy of the assay, value ± spread over many measurements (# data 42-54), read-out: EC50
[2] = Dengue virus, Vero cells 1500 cells/well, MOI 0.1, 5-6 days, ATPLite, Exp. # 1, read-out: EC50 (μM) Exp. # 1
[3] = Dengue virus, Vero cells 1500 cells/well, MOI 0.1, 5-6 days, ATPLite, Exp. # 2, read-out: EC50 (μM) Exp. # 2
[4] = Dengue virus, Vero cells 1500 cells/well, MOI 0.1, 5-6 days, ATPLite, Exp. # 3, read-out: EC50 (μM) Exp. # 3
[5] = Dengue virus, Vero cells 1500 cells/well, MOI 0.1, 5-6 days, ATPLite, Exp. # 4, read-out: EC50 (μM) Exp. # 4
[6] = Dengue virus, Vero cells 1500 cells/well, MOI 0.1, 5-6 days, ATPLite, Exp. # 5, read-out: EC50 (μM) Exp. # 5
[7] = Dengue virus, Vero cells 1500 cells/well, MOI 0.1, 5-6 days, ATPLite, Exp. # 6, read-out: EC50 (μM) Exp. # 6
[8] = Dengue virus, Vero cells 1500 cells/well, MOI 0.1, 5-6 days, ATPLite, Exp. # 7, read-out: EC50 (μM) Exp. # 7

Compound | EC50 [1] [µM] | EC50 [2] [µM] | EC50 [3] [µM] | EC50 [4] [µM] | EC50 [5] [µM] | EC50 [6] [µM] | EC50 [7] [µM] | EC50 [8] [µM] | EC50 (accuracy of the assay, value ± spread over 30 measurements)
C[C@@]1(O)[C@H](O)[C@@H](CO)O[C@H]1n1ccc(N)nc1=O [2′-C-methylcytidine] | 12.6 ± 3.32 | 13.5 | 14.6 | 10.3 | 10.4 | 6.73 | 14 | 17.4 | –
NC(=O)c1ncn([C@@H]2O[C@H](CO)[C@@H](O)[C@H]2O)n1 [Ribavirin] | 53 ± 10.2 | 52 | 53.8 | 43.8 | 42.4 | 47.7 | 69 | 67.5 | –
Interferon-α | – | – | – | – | – | – | – | – | 861.2 IU/ml ± 427.11
O=c1cnn([C@@H]2O[C@H](CO)[C@@H](O)[C@H]2O)c(=O)[nH]1 [6-Azauridine] | 4.53 ± 0.83 | 5.52 | 4.85 | 3.74 | 4.26 | 4.6 | 3.81 | 5.14 | –
